Test results as given in patent US20110002843A1, “METHOD OF DETECTING MYOCARDIAL DYSFUNCTION IN PATIENTS HAVING A HISTORY OF ASTHMA OR BRONCHOSPASM” (priority 2005, published 2011).

What was measured:
Adenosine Receptor A1 = molecular target: T1, Adenosine Receptor A1 (Cavia porcellus, UniProt P47745); experiment: G.P. Right Atrium (Negative Chronotropy) bioassay; design: species or system guinea pig
T1 construct: prepared guinea pig assays for binodenoson; from tissue; host or cells: isolated guinea pig right / left atrium
T1 sequence (P47745 1-326): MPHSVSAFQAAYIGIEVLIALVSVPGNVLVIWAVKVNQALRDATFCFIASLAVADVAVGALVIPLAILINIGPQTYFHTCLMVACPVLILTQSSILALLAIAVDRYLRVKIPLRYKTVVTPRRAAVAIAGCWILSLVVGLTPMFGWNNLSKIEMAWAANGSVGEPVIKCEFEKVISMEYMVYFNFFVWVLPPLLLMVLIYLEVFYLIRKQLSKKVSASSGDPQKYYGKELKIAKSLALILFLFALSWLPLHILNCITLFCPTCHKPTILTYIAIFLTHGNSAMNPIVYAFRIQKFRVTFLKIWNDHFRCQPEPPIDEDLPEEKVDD
Source text: It is further preferable to use compounds that are selective for the A2A receptor over the A2B receptor. Additional methods are known in the art for performing bioassays and are useful to identify selectivity to the A2B receptor as well as confirming selectivity and potency in vivo. Such bioassays are typically performed prior to animal and human trials.

[1] = Isolated and denervated atrial preparations, rate
β-adrenergic receptors = experiment: Affinity for β-adrenergic receptors; assay type: binding
cytochrome P450 enzymes = experiment: In vitro inhibition of cytochrome P450 enzymes; assay type: in vitro ADME
A1 adenosine receptor = molecular target: T2, A1 adenosine receptor (Cavia porcellus, UniProt P47745); experiment: Langendorff guinea pig heart preparation, prolongation of stimulus-QRS interval (negative dromotropy)
T2 sequence (P47745 1-326): T1 sequence (P47745 1-326)
Procedure: The A1/A2A selectivity in Table 1 was calculated as the quotient of the EC50 of stimulus-QRS prolongation divided by the EC50 of coronary vasodilation.

In the case of Nc1nc(N/N=C/C2CCCCC2)nc2c1ncn2[C@@H]1O[C@H](CO)[C@@H](O)[C@H]1O (stereo in doubt) [Binodenoson, 2-{2-[(Cyclohexyl)methylene]hydrazino}adenosine], the EC50 (Adenosine Receptor A1) is reported as 39.8 µM, the atrial rate [1] is reported as “did not increase the rate” and the affinity (β-adrenergic receptors) is reported as “no affinity”. The “inhibition of cytochrome P450 enzymes” value (cytochrome P450 enzymes) was “no significant inhibition” and the EC50 (A1 adenosine receptor) was 3.5 µM.
